Measurements as given in patent US12083097B2, “Dual TNFR1 antagonists and TNER2 agonists for use in renal diseases” (SERODUS AS, priority 2020, dated 2024).
“Also recorded” adds a separate entry of the source.

What was measured:
[1] = tested on: patients with diabetic nephropathy; assay: Clinical Phase 2a study, ACR in patients with diabetic nephropathy; type: in vivo, human; conditions: for Average baseline ACR / Average ACR (4 weeks): doses 0.3 and 0.625 mg/kg daily pooled
Experimental: A clinical Phase 2a study with compound 1 was conducted in patients with diabetic nephropathy. The patients were divided into two different subgroups having either macroalbuminuria (ACR>300 mg/g) or microalbuminuria (ACR 30-300 mg/g), and each subgroup were treated with 0.3 mg of compound 1/kg daily or 0.625 mg of compound 1/kg daily for 4 weeks.

sTNFR2 = assay: Urine sTNFR2-to-creatinine in Px-UNx diabetic nephropathy rat model (ELISA); type: in vivo; conditions: for urine concentration of sTNFR2 corrected for urine creatinine: Group 3, Px-UNx rats, 1 mg/kg
Experimental: (§1) In the examples below, the sTNFR1 and sTNFR2 were measured using the commercial ELISA kits mouse/rat TNFRI/TNFRII Quantikine ELISA kits from R&D Systems according to the manufacturers protocol. However, for the purpose of measuring the sTNFR1 and sTNFR2 in humans for determining the relevant population groups according the present invention, the method described in Krolewski A. S. Diabetes Care 2015; 38:954-962 and Krolewski A. S. et al. Kidney Int. 2017 June; 91(6): 1300-1311 should be used.
(§2) The pancreatectomy and uninephrectomy (see below) were conducted during a single surgical procedure (Secher T et al. Diabetes 2018 July; 67(Supplement 1)). Animals were operated in a randomized fashion during several consecutive surgical days. After an overnight full-fast with grids installed in the cages, the rats were pancreatectomized and uninephrectomized under isoflurane anesthesia. Pre-operative analgesia, antibiotics and fluid replacement were administered. Rats were not offered any food from one day before to one day after the surgery, From the second day after surgery they were fed ad libitum.
(§3) In short, the 90% pancreatectomy is performed by removing the complete portion of the tail, body and a part of the pancreatic head by gentle abrasion with dental applicator. The major blood vessels to the stomach, spleen and gut are left intact so no other organs are compromised.
(§4) Briefly, the right kidney is visited and the right ureter, kidney artery and kidney vein identified, and ligated with suture. Hereafter, the right kidney is removed.
(§5) The sham operation is conducted to mimic the Px-UNx surgical procedure as best as possible. In brief, anesthesia and analgesia as well as opening and closuring the abdominal cavity are conducted as described above. After the abdominal cavity is opened, the pancreas and right kidney will be exposed, but left untouched and intact.
Rats were placed individually in metabolic cages for 16 h from the afternoon to the next morning. […] Total urine volume was recorded, and urine stored at −80° C. […]
(§6) Urine samples were stored at −80° C. until analysis. sTNFR1 in rat urine was measured using commercial ELISA kits (R&D Systems mouse/rat TNFRI/TNFRII Quantikine ELISA kits) according to the manufacturer's instructions. Urine creatinine was measured using the CREP2 kit (Roche Diagnostics, Germany) on the Cobas™ C-501 autoanalyzer as per the manufacturer's instructions. Urinary albumin was measured using the Bethyl Laboratories rat albumin ELISA as per the manufacturer's instructions. The urinary albumin-to-creatinine ratio (UACR) was calculated. […]
Likewise, the urine concentrations of sTNFR2 corrected for urine concentration of creatinine (pg/mg) were measured at baseline and after 4 and 7 weeks in group 3.

sTNFR1 = assay: Urine sTNFR1-to-creatinine in Px-UNx diabetic nephropathy rat model (ELISA); type: in vivo; conditions: for urine sTNFR1 corrected for creatinine, pooled data from Table 2: Treated Px-UNx rats (n = 33), doses 1, 3, 10 mg/kg pooled
Experimental: Three active doses of 1, 3 and 10 mg/kg of compound 1 were administered orally once daily to 90% pancreatectomized and uninephrectomized rats over 49 days. A control group received placebo, and another control group underwent surgery to mimic the 90% pancreatectomy (Px) and uninephrectomy (UNx) without affecting the function of the kidney or the pancreas (Sham model). The Sham group also received placebo. The conclusion from the rat study was that compound 1 reduced the level of sTNFR1 in the urine over the full treatment period (see FIG. 2). […] The daily doses in the rat model may be converted into equivalent doses in humans (Guidance for Industry: Estimating the Maximum Safe Starting Dose in Initial Clinical Trials for Therapeutics in Adult Healthy Volunteers, 2005). Thus, the 1 mg/kg daily dose corresponds to a human daily dose of 0.16 mg/kg or 11.2 mg for a 70-kg patient. Likewise, a 3 mg/kg daily dose corresponds to a human daily dose of 0.48 mg/kg or 33.6 mg for a 70-kg patient. Finally, a 10 mg/kg daily dose corresponds to a human daily dose of 1.6 mg/kg or 112.7 mg for a 70-kg patient.
as §1, §2, §3, §4, §5
Rats were placed individually in metabolic cages for 16 h from the afternoon to the next morning. Randomized subsets of the study groups were placed in the cages over several days (as there were fewer cages than rats). Rats were supplied with chow and water ad libitum. Cage enrichment (igloo, plastic stick to sit on) was included if possible. Total urine volume was recorded, and urine stored at −80° C. Large amounts were aliquoted in several 0.5 ml Eppendorph tubes prior to freezing.
as §6, with “instructions.” for “instructions. The urinary albumin-to-creatinine ratio (UACR) was calculated.”

## O=C(O)CC/C=C\C[C@@H]1CO[C@H](c2ccccc2Cl)O[C@@H]1c1ccccc1O [compound 1, (Z)-6-((2S,4S,5R)-2-(2-chlorophenyl)-4-(2-hydroxyphenyl)-1,3-dioxan-cis-5-yl) hex-4-enoic acid]
[1]; 0.3 vs 0.625 mg/kg daily, each subgroup, 4 weeks
  difference in ACR effect between the two doses: No statistic significant difference between the two doses
[1]; 4 weeks, doses pooled
  ACR reduction in macroalbuminuria versus microalbuminuria sub-group: statistic significant higher reduction in ACR
[1]; Macroalbuminuria (ACR>300 mg/g) patients, n = 11, baseline
  Average baseline ACR: 691 mg/g
[1]; Macroalbuminuria patients, n = 11, 4 weeks vs baseline, doses pooled
  ACR reduction (%): 26.2%
[1]; Macroalbuminuria patients, n = 11, after 4 weeks
  Average ACR (4 weeks): 510 mg/g
[1]; Microalbuminuria (ACR 30-300 mg/g) patients, n = 38, baseline
  Average baseline ACR: 91.8 mg/g
[1]; Microalbuminuria patients, n = 38, 4 weeks vs baseline, doses pooled
  ACR reduction (%): 20.9%
[1]; Microalbuminuria patients, n = 38, after 4 weeks
  Average ACR (4 weeks): 72.6 mg/g
[1]; both subgroups (micro- and macroalbuminuria), 4 weeks
  reduction in ACR from baseline: statistically significant reduction in ACR
sTNFR2; 0 weeks (baseline)
  urine concentration of sTNFR2 corrected for urine creatinine: 4561 pg/mg
sTNFR2; 4 weeks
  urine concentration of sTNFR2 corrected for urine creatinine: 3302 pg/mg
sTNFR2; 7 weeks
  urine concentration of sTNFR2 corrected for urine creatinine: 3264 pg/mg
sTNFR2; Px-UNx rats, 3 mg/kg, p.o., 4 and 7 weeks
  change in urine TNFR2-to-creatinine from baseline versus placebo (FIG. 3): decreasing levels of TNFR2 but much less compared to the placebo control group
sTNFR1; Group 3, Px-UNx rats, 1 mg/kg orally once daily, 0 weeks (baseline)
  urine concentration of sTNFR1 corrected for urine creatinine: 243.38 pg/mg
sTNFR1; Group 3, Px-UNx rats, 1 mg/kg orally once daily, 4 weeks
  urine concentration of sTNFR1 corrected for urine creatinine: 373.28 pg/mg
sTNFR1; Group 3, Px-UNx rats, 1 mg/kg orally once daily, 7 weeks
  urine concentration of sTNFR1 corrected for urine creatinine: 345.46 pg/mg
sTNFR1; Group 4, Px-UNx rats, 3 mg/kg orally once daily, 0 weeks (baseline)
  urine concentration of sTNFR1 corrected for urine creatinine: 236.29 pg/mg
sTNFR1; Group 4, Px-UNx rats, 3 mg/kg orally once daily, 4 weeks
  urine concentration of sTNFR1 corrected for urine creatinine: 313.80 pg/mg
sTNFR1; Group 4, Px-UNx rats, 3 mg/kg orally once daily, 7 weeks
  urine concentration of sTNFR1 corrected for urine creatinine: 369.65 pg/mg
sTNFR1; Group 5, Px-UNx rats, 10 mg/kg orally once daily, 0 weeks (baseline)
  urine concentration of sTNFR1 corrected for urine creatinine: 220.27 pg/mg
sTNFR1; Group 5, Px-UNx rats, 10 mg/kg orally once daily, 4 weeks
  urine concentration of sTNFR1 corrected for urine creatinine: 348.50 pg/mg
sTNFR1; Group 5, Px-UNx rats, 10 mg/kg orally once daily, 7 weeks
  urine concentration of sTNFR1 corrected for urine creatinine: 375.03 pg/mg
sTNFR1; Px-UNx rats, 1, 3, 10 mg/kg, 4 and 7 weeks, compared with Px-UNx placebo
  corrected urine sTNFR1 level versus placebo group: capable of decreasing the level of sTNFR1; also recorded: consistently below the values for the placebo group
sTNFR1; Px-UNx rats, 1, 3 or 10 mg/kg
  difference in sTNFR1 effect between dosage levels: no statistically significant difference between dosage levels
sTNFR1; Px-UNx rats, pooled doses, 7-week period
  change in urine sTNFR1 from baseline versus placebo (FIG. 2): significantly less than for the placebo control group
sTNFR1; 0 weeks (baseline)
  urine sTNFR1 corrected for creatinine, pooled data from Table 2: 233.3 pg/mg
sTNFR1; 4 weeks
  urine sTNFR1 corrected for creatinine, pooled data from Table 2: 345.2 pg/mg
sTNFR1; 7 weeks
  urine sTNFR1 corrected for creatinine, pooled data from Table 2: 363.4 pg/mg
